Each structure is given as a SMILES string. The source made the active and inactive calls. The rule behind the calls is not given here.

For assay [1], the system named is HeLa. Description: Induction of apoptosis in human HeLa cells assessed as live cells at 10 uM after 24 hrs by Annexin-V FITC/propidium iodide staining based flow cytometry (reference value: 95.5%). It counts as functional.
For the next assay, the system named is MCF7. In words: Cytotoxicity against human MCF7 cells assessed as reduction in cell viability after 48 hrs by MTT assay. Format: functional, cell-based. The settings on record: MCF7, 48 h.
For the next assay, the system named is A549. Description: Cytotoxicity against human A549 cells assessed as reduction in cell viability after 48 hrs by MTT assay. The settings on record: A549, 48 h. It counts as functional, cell-based. (Formazan colour is commonly taken as a measure of viable cells.)
Assay [2] deals with HeLa. Description: Induction of apoptosis in human HeLa cells assessed as nuclear fragmentation after 24 hrs by acridine orange/ethidium bromide staining based fluorescence confocal microscopic method. It counts as functional, cell-based.
The subject of assay [3] is HeLa. Description: Induction of apoptosis in human HeLa cells assessed as necrotic cells at 5 uM after 24 hrs by Annexin-V FITC/propidium iodide staining based flow cytometry (reference value: 1.81%). Format: functional.
Assay [4] deals with HeLa. Description: Induction of apoptosis in human HeLa cells assessed as ring shaped cell masses at 5 to 10 uM after 24 hrs by […] staining based fluorescence microscopic method. It counts as functional.
Assay [5] deals with HeLa. Description: Induction of apoptosis in human HeLa cells assessed as chromatin condensation after 24 hrs by acridine orange/ethidium bromide staining based fluorescence confocal microscopic method. Format: functional, cell-based.
Assay [6] has as its system HeLa. In words: Cell cycle arrest in human HeLa cells assessed as accumulation at G2/M phase at 10 uM after 24 hrs by propidium iodide staining based flow cytometry (reference value: 9.89%). It counts as functional. On the technique in general: A flow cytometer gives signals particle by particle.
The test system of assay [7] is HeLa. Description: Cell cycle arrest in human HeLa cells assessed as accumulation at G2/M phase at 5 uM after 24 hrs by propidium iodide staining based flow cytometry (reference value: 9.89%). Format: functional.
In assay [8] the test system is HeLa. In words: Cell cycle arrest in human HeLa cells assessed as accumulation at S phase after 24 hrs by propidium iodide staining based flow cytometry. Format: functional.
The subject of assay [9] is HeLa. Description: Cell cycle arrest in human HeLa cells assessed as accumulation at G1 phase at 5 uM after 24 hrs by propidium iodide staining based flow cytometry (reference value: 66.42%). It counts as functional.
The test system of assay [10] is HeLa. Description: Cell cycle arrest in human HeLa cells assessed as accumulation at S phase at 10 uM after 24 hrs by propidium iodide staining based flow cytometry (reference value: 23.69%). Format: functional.
Assay [11] relates to HeLa. In words: Cell cycle arrest in human HeLa cells assessed as accumulation at G1 phase at 10 uM after 24 hrs by propidium iodide staining based flow cytometry (reference value: 66.42%). It counts as functional.
For assay [12], the system named is HeLa. Description: Induction of apoptosis in human HeLa cells assessed as live cells at 5 uM after 24 hrs by Annexin-V FITC/propidium iodide staining based flow cytometry (reference value: 95.5%). It counts as functional.
The subject of assay [13] is HeLa. In words: Induction of apoptosis in human HeLa cells assessed as early apoptotic cells at 10 uM after 24 hrs by Annexin-V FITC/propidium iodide staining based flow cytometry (reference value: 2.36%). It counts as functional.
The subject of assay [14] is HeLa. In words: Induction of apoptosis in human HeLa cells assessed as early apoptotic cells at 5 uM after 24 hrs by Annexin-V FITC/propidium iodide staining based flow cytometry (reference value: 2.36%). Format: functional.
The test system of assay [15] is HeLa. Description: Induction of apoptosis in human HeLa cells assessed as late apoptotic cells at 5 uM after 24 hrs by Annexin-V FITC/propidium iodide staining based flow cytometry (reference value: 0.29%). It counts as functional.
For assay [16], the system named is HeLa. Description: Induction of apoptosis in human HeLa cells assessed as necrotic cells at 10 uM after 24 hrs by Annexin-V FITC/propidium iodide staining based flow cytometry (reference value: 1.81%). It counts as functional.
For assay [17], the system named is HeLa. In words: Induction of apoptosis in human HeLa cells after 24 hrs by Annexin-V FITC/propidium iodide staining based flow cytometry. Format: functional, cell-based.
For assay [18], the system named is HeLa. In words: Cell cycle arrest in human HeLa cells assessed as accumulation at S phase at 5 uM after 24 hrs by propidium iodide staining based flow cytometry (reference value: 23.69%). Format: functional.
Assay [19] relates to HeLa. In words: Induction of apoptosis in human HeLa cells assessed as crescent shaped cell masses at 5 to 10 uM after 24 hrs by […] staining based fluorescence microscopic method. Format: functional.
In assay [20] the test system is HeLa. Description: Induction of apoptosis in human HeLa cells assessed as late apoptotic cells at 10 uM after 24 hrs by Annexin-V FITC/propidium iodide staining based flow cytometry (reference value: 0.29%). It counts as functional.
In assay [21] the test system is HeLa. In words: Cytotoxicity against human HeLa cells assessed as reduction in cell viability after 48 hrs by MTT assay. Format: functional, cell-based.

The IC50 is the point on the concentration scale where inhibition reaches its midpoint. As for `CC(C)(C)c1nc(Nc2ccc(F)c(Cl)c2)sc1Cc1ccc2c(c1)OCO2`, the Activity with HeLa [1] is 75.2%; in the assay on HeLa [2] it was “Dose-dependent effect”; in the assay on HeLa [3], 0.61%; in the assay on HeLa [5] it was “Dose-dependent effect”; in the assay with HeLa [6] it was 9.56%; with HeLa [7], 10.51%. Also, the Activity entry with HeLa [8] was “Dose-dependent effect”; in the assay with HeLa [9], 60.8%; with HeLa [10], 36.63%; in the assay on HeLa [11], 53.81%; with HeLa [12] it was 86.1%; in the assay with HeLa [13] it was 19.5%. In addition, the Activity with HeLa [14] is 11.7%; with HeLa [15] it was 1.58%; in the assay on HeLa [16] it was 0.94%; in the assay on HeLa [17] it was “Dose-dependent effect”; with HeLa [18] it was 28.69%; with HeLa [20], 4.39%. For the same compound, the IC50 was found to be 8.66 µM in the assay with MCF7, 16.3 µM with A549 and 4.6 µM in the assay with HeLa [21]. Moreover, the outcome in the assay on HeLa [4] and in the assay with HeLa [19] was Active.

Values taken from ChEMBL document CHEMBL3992482 (Medchemcomm, 2016).
